# Publication PMC6332596 (Journal of Hematology & Oncology, 2019)
# Where two headings read alike, the source gives them in different places.
# [1] = Grade 1, worst grade per patient in all cycles, N = 18
# [2] = Grade 2, worst grade per patient in all cycles, N = 18
# [3] = Grade 3, worst grade per patient in all cycles, N = 18
# [4] = Grade 4, worst grade per patient in all cycles, N = 18
# [5] = Grade 5, worst grade per patient in all cycles, N = 18
# Description: Patients were enrolled sequentially into dose escalation cohorts using a standard 3 + 3 design, except that only two patients were enrolled at the starting dose. Intra-patient dose escalation was not permitted.
# If one of the first three patients at a dose level experienced DLT, up to three additional patients (total up to six patients) were enrolled at that dose level. If more than two patients at a dose level experienced DLT, dose escalation was halted, and the dose level was determined to have exceeded MTD. Three additional patients were then entered on the next lower dose level. MTD was defined as the highest dose with an observed incidence of DLT in no more than one of six patients.
# Toxicity was graded according to Common Terminology Criteria for Adverse Events (CTCAE) version 4.0.
# Safety assessments included the reporting of all adverse events (AEs), changes in clinical laboratory parameters (hematology, serum chemistries, coagulation, urinalysis), vital sign measurements, 12-lead electrocardiogram (ECG) results, and physical examination findings. In addition, serial measurements of left ventricular ejection fraction, thyroid function, myocardial enzymes, troponin, amylase, and lipase were performed. Twenty-four-hour urine protein was implemented if clinically indicated.
# Safety parameters were assessed at baseline and at regular intervals during the study. Adverse events (AEs) were classified/graded weekly according to the CTCAE version 4.0.
structure (smiles),measurement,setting,value
COc1ccc2c(Oc3ccc4c(C(=O)Nc5ccccc5N)cccc4c3)ccnc2c1 [chiauranib],patients with DLT (grade 3 hypertension),"65 mg/day cohort (n = 4), cycle 1",two
same,serious adverse events (SAE) reported,"20-mg dose level, death from pulmonary infection, assessed unlikely related",one
same,Treatment-related adverse event: ALT increased,[1],2 (11.1) n (%)
same,Treatment-related adverse event: AST increased,[1],3 (16.7) n (%)
same,Treatment-related adverse event: Abdominal pain,[1],2 (11.1) n (%)
same,Treatment-related adverse event: Amylase increased,[1],3 (16.7) n (%)
same,Treatment-related adverse event: Blood urea increased,[1],2 (11.1) n (%)
same,Treatment-related adverse event: Conjugated bilirubin increased,[1],5 (27.8) n (%)
same,Treatment-related adverse event: Decreased appetite,[1],0 n (%)
same,Treatment-related adverse event: Diarrhea,[1],2 (11.1) n (%)
same,Treatment-related adverse event: Dysphonia,[1],2 (11.1) n (%)
same,Treatment-related adverse event: Fatigue,[1],7 (38.9) n (%)
same,Treatment-related adverse event: Hematuria,[1],7 (38.9) n (%)
same,Treatment-related adverse event: Hyperbilirubinemia,[1],2 (11.1) n (%)
same,Treatment-related adverse event: Hypertension,[1],3 (16.7) n (%)
same,Treatment-related adverse event: Hypertriglyceridemia,[1],5 (27.8) n (%)
same,Treatment-related adverse event: Hypothyroidism,[1],7 (38.9) n (%)
same,Treatment-related adverse event: Leucopenia,[1],2 (11.1) n (%)
same,Treatment-related adverse event: Mouth ulceration,[1],1 (5.6) n (%)
same,Treatment-related adverse event: Nausea,[1],4 (22.2) n (%)
same,Treatment-related adverse event: Neutropenia,[1],2 (11.1) n (%)
same,Treatment-related adverse event: Palmar-plantar erythrodysesthesia syndrome,[1],1 (5.6) n (%)
same,Treatment-related adverse event: Proteinuria,[1],8 (44.4) n (%)
same,Treatment-related adverse event: Rash,[1],1 (5.6) n (%)
same,Treatment-related adverse event: Thrombocytopenia,[1],2 (11.1) n (%)
same,Treatment-related adverse event: Unconjugated bilirubin increased,[1],2 (11.1) n (%)
same,Treatment-related adverse event: Vaginal hemorrhage,[1],2 (11.1) n (%)
same,Treatment-related adverse event: ALT increased,[2],0 n (%)
same,Treatment-related adverse event: AST increased,[2],0 n (%)
same,Treatment-related adverse event: Abdominal pain,[2],0 n (%)
same,Treatment-related adverse event: Amylase increased,[2],1 (5.6) n (%)
same,Treatment-related adverse event: Blood urea increased,[2],0 n (%)
same,Treatment-related adverse event: Conjugated bilirubin increased,[2],0 n (%)
same,Treatment-related adverse event: Decreased appetite,[2],2 (11.1) n (%)
same,Treatment-related adverse event: Diarrhea,[2],1 (5.6) n (%)
same,Treatment-related adverse event: Dysphonia,[2],0 n (%)
same,Treatment-related adverse event: Fatigue,[2],4 (22.2) n (%)
same,Treatment-related adverse event: Hematuria,[2],0 n (%)
same,Treatment-related adverse event: Hyperbilirubinemia,[2],0 n (%)
same,Treatment-related adverse event: Hypertension,[2],1 (5.6) n (%)
same,Treatment-related adverse event: Hypertriglyceridemia,[2],1 (5.6) n (%)
same,Treatment-related adverse event: Hypothyroidism,[2],0 n (%)
same,Treatment-related adverse event: Leucopenia,[2],1 (5.6) n (%)
same,Treatment-related adverse event: Mouth ulceration,[2],1 (5.6) n (%)
same,Treatment-related adverse event: Nausea,[2],0 n (%)
same,Treatment-related adverse event: Neutropenia,[2],0 n (%)
same,Treatment-related adverse event: Palmar-plantar erythrodysesthesia syndrome,[2],1 (5.6) n (%)
same,Treatment-related adverse event: Proteinuria,[2],0 n (%)
same,Treatment-related adverse event: Rash,[2],1 (5.6) n (%)
same,Treatment-related adverse event: Thrombocytopenia,[2],0 n (%)
same,Treatment-related adverse event: Unconjugated bilirubin increased,[2],0 n (%)
same,Treatment-related adverse event: Vaginal hemorrhage,[2],0 n (%)
same,Treatment-related adverse event: ALT increased,[3],0 n (%)
same,Treatment-related adverse event: AST increased,[3],0 n (%)
same,Treatment-related adverse event: Abdominal pain,[3],0 n (%)
same,Treatment-related adverse event: Amylase increased,[3],0 n (%)
same,Treatment-related adverse event: Blood urea increased,[3],0 n (%)
same,Treatment-related adverse event: Conjugated bilirubin increased,[3],0 n (%)
same,Treatment-related adverse event: Decreased appetite,[3],0 n (%)
same,Treatment-related adverse event: Diarrhea,[3],0 n (%)
same,Treatment-related adverse event: Dysphonia,[3],0 n (%)
same,Treatment-related adverse event: Fatigue,[3],0 n (%)
same,Treatment-related adverse event: Hematuria,[3],0 n (%)
same,Treatment-related adverse event: Hyperbilirubinemia,[3],0 n (%)
same,Treatment-related adverse event: Hypertension,[3],2 (11.1) n (%)
same,Treatment-related adverse event: Hypertriglyceridemia,[3],0 n (%)
same,Treatment-related adverse event: Hypothyroidism,[3],0 n (%)
same,Treatment-related adverse event: Leucopenia,[3],0 n (%)
same,Treatment-related adverse event: Mouth ulceration,[3],0 n (%)
same,Treatment-related adverse event: Nausea,[3],0 n (%)
same,Treatment-related adverse event: Neutropenia,[3],2 (11.1) n (%)
same,Treatment-related adverse event: Palmar-plantar erythrodysesthesia syndrome,[3],0 n (%)
same,Treatment-related adverse event: Proteinuria,[3],0 n (%)
same,Treatment-related adverse event: Rash,[3],0 n (%)
same,Treatment-related adverse event: Thrombocytopenia,[3],0 n (%)
same,Treatment-related adverse event: Unconjugated bilirubin increased,[3],0 n (%)
same,Treatment-related adverse event: Vaginal hemorrhage,[3],0 n (%)
same,Treatment-related adverse event: ALT increased,[4],0 n (%)
same,Treatment-related adverse event: AST increased,[4],0 n (%)
same,Treatment-related adverse event: Abdominal pain,[4],0 n (%)
same,Treatment-related adverse event: Amylase increased,[4],0 n (%)
same,Treatment-related adverse event: Blood urea increased,[4],0 n (%)
same,Treatment-related adverse event: Conjugated bilirubin increased,[4],0 n (%)
same,Treatment-related adverse event: Decreased appetite,[4],0 n (%)
same,Treatment-related adverse event: Diarrhea,[4],0 n (%)
same,Treatment-related adverse event: Dysphonia,[4],0 n (%)
same,Treatment-related adverse event: Fatigue,[4],0 n (%)
same,Treatment-related adverse event: Hematuria,[4],0 n (%)
same,Treatment-related adverse event: Hyperbilirubinemia,[4],0 n (%)
same,Treatment-related adverse event: Hypertension,[4],0 n (%)
same,Treatment-related adverse event: Hypertriglyceridemia,[4],0 n (%)
same,Treatment-related adverse event: Hypothyroidism,[4],0 n (%)
same,Treatment-related adverse event: Leucopenia,[4],0 n (%)
same,Treatment-related adverse event: Mouth ulceration,[4],0 n (%)
same,Treatment-related adverse event: Nausea,[4],0 n (%)
same,Treatment-related adverse event: Neutropenia,[4],0 n (%)
same,Treatment-related adverse event: Palmar-plantar erythrodysesthesia syndrome,[4],0 n (%)
same,Treatment-related adverse event: Proteinuria,[4],0 n (%)
same,Treatment-related adverse event: Rash,[4],0 n (%)
same,Treatment-related adverse event: Thrombocytopenia,[4],0 n (%)
same,Treatment-related adverse event: Unconjugated bilirubin increased,[4],0 n (%)
same,Treatment-related adverse event: Vaginal hemorrhage,[4],0 n (%)
same,Treatment-related adverse event: ALT increased,[5],0 n (%)
same,Treatment-related adverse event: AST increased,[5],0 n (%)
same,Treatment-related adverse event: Abdominal pain,[5],0 n (%)
same,Treatment-related adverse event: Amylase increased,[5],0 n (%)
same,Treatment-related adverse event: Blood urea increased,[5],0 n (%)
same,Treatment-related adverse event: Conjugated bilirubin increased,[5],0 n (%)
same,Treatment-related adverse event: Decreased appetite,[5],0 n (%)
same,Treatment-related adverse event: Diarrhea,[5],0 n (%)
same,Treatment-related adverse event: Dysphonia,[5],0 n (%)
same,Treatment-related adverse event: Fatigue,[5],0 n (%)
same,Treatment-related adverse event: Hematuria,[5],0 n (%)
same,Treatment-related adverse event: Hyperbilirubinemia,[5],0 n (%)
same,Treatment-related adverse event: Hypertension,[5],0 n (%)
same,Treatment-related adverse event: Hypertriglyceridemia,[5],0 n (%)
same,Treatment-related adverse event: Hypothyroidism,[5],0 n (%)
same,Treatment-related adverse event: Leucopenia,[5],0 n (%)
same,Treatment-related adverse event: Mouth ulceration,[5],0 n (%)
same,Treatment-related adverse event: Nausea,[5],0 n (%)
same,Treatment-related adverse event: Neutropenia,[5],0 n (%)
same,Treatment-related adverse event: Palmar-plantar erythrodysesthesia syndrome,[5],0 n (%)
same,Treatment-related adverse event: Proteinuria,[5],0 n (%)
same,Treatment-related adverse event: Rash,[5],0 n (%)
same,Treatment-related adverse event: Thrombocytopenia,[5],0 n (%)
same,Treatment-related adverse event: Unconjugated bilirubin increased,[5],0 n (%)
same,Treatment-related adverse event: Vaginal hemorrhage,[5],0 n (%)
same,treatment-related AE exceeding grade 3,N = 18,No treatment-related AE exceeded grade 3 was observed
same,treatment-related deaths,N = 18,No treatment-related deaths occurred
same,"treatment-related fatigue, irrespective of grade",N = 18,61.1%
same,treatment-related grade 3 hyperglycemia,N = 18,one
same,treatment-related grade 3 hypertension,N = 18,two
same,treatment-related grade 3 neutropenia,N = 18,two
same,"treatment-related hematuria, irrespective of grade",N = 18,38.9%
same,"treatment-related hypertension, irrespective of grade",N = 18,33.3%
same,"treatment-related hypertriglyceridemia, irrespective of grade",N = 18,33.3%
same,"treatment-related hypothyroidism, irrespective of grade",N = 18,38.9%
same,"treatment-related proteinuria, irrespective of grade",N = 18,44.4%
same,patients with at least one AE,"N = 18, all dose levels",18 patients
same,patients with at least one treatment-related AE,"N = 18, all dose levels",94.4%
same,Treatment-related adverse event: ALT increased,"Total, all cycles, N = 18",2 (11.1) n (%)
same,Treatment-related adverse event: AST increased,"Total, all cycles, N = 18",3 (16.7) n (%)
same,Treatment-related adverse event: Abdominal pain,"Total, all cycles, N = 18",2 (11.1) n (%)
same,Treatment-related adverse event: Amylase increased,"Total, all cycles, N = 18",4 (22.2) n (%)
same,Treatment-related adverse event: Blood urea increased,"Total, all cycles, N = 18",2 (11.1) n (%)
same,Treatment-related adverse event: Conjugated bilirubin increased,"Total, all cycles, N = 18",5 (27.8) n (%)
same,Treatment-related adverse event: Decreased appetite,"Total, all cycles, N = 18",2 (11.1) n (%)
same,Treatment-related adverse event: Diarrhea,"Total, all cycles, N = 18",3 (16.7) n (%)
same,Treatment-related adverse event: Dysphonia,"Total, all cycles, N = 18",2 (11.1) n (%)
same,Treatment-related adverse event: Fatigue,"Total, all cycles, N = 18",11 (61.1) n (%)
same,Treatment-related adverse event: Hematuria,"Total, all cycles, N = 18",7 (38.9) n (%)
same,Treatment-related adverse event: Hyperbilirubinemia,"Total, all cycles, N = 18",2 (11.1) n (%)
same,Treatment-related adverse event: Hypertension,"Total, all cycles, N = 18",6 (33.3) n (%)
same,Treatment-related adverse event: Hypertriglyceridemia,"Total, all cycles, N = 18",6 (33.3) n (%)
same,Treatment-related adverse event: Hypothyroidism,"Total, all cycles, N = 18",7 (38.9) n (%)
same,Treatment-related adverse event: Leucopenia,"Total, all cycles, N = 18",3 (16.7) n (%)
same,Treatment-related adverse event: Mouth ulceration,"Total, all cycles, N = 18",2 (11.1) n (%)
same,Treatment-related adverse event: Nausea,"Total, all cycles, N = 18",4 (22.2) n (%)
same,Treatment-related adverse event: Neutropenia,"Total, all cycles, N = 18",4 (22.2) n (%)
same,Treatment-related adverse event: Palmar-plantar erythrodysesthesia syndrome,"Total, all cycles, N = 18",2 (11.1) n (%)
same,Treatment-related adverse event: Proteinuria,"Total, all cycles, N = 18",8 (44.4) n (%)
same,Treatment-related adverse event: Rash,"Total, all cycles, N = 18",2 (11.1) n (%)
same,Treatment-related adverse event: Thrombocytopenia,"Total, all cycles, N = 18",2 (11.1) n (%)
same,Treatment-related adverse event: Unconjugated bilirubin increased,"Total, all cycles, N = 18",2 (11.1) n (%)
same,Treatment-related adverse event: Vaginal hemorrhage,"Total, all cycles, N = 18",2 (11.1) n (%)
same,MTD,administered orally once daily,50 mg
same,recommended phase II dose (RP2D),"administered orally once daily, monotherapy",50 mg
same,maximum tolerated dose (MTD),"patients, oral once daily, 28-day cycles",50 mg/day
